Reference: patent US10227345B2, “Compounds and methods for inhibiting fascin” (Cornell University, priority 2014, dated 2019)

How the values were obtained:
[1] = molecular target: T1, human fascin 1 (Homo sapiens, UniProt Q16658); assay: Fascin inhibition (actin bundling) assay, image-based; assay type: biochemical; details: in the presence of 50 μm of the compound relative to bundle activity when the compound was not present; read-out: Inhibition (percentage reduction of bundle activity)
T1 construct: GST (N, cleaved yes); made in house; host or cells: Escherichia coli BL21/DE3 (pGEX4T-fascin 1 plasmid)
How it was run: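 GST-tagged human fascin 1 from E. coli, thrombin-cleaved, was preincubated with compounds for 30 min, then polymerized actin was added; compounds were at 30 μM final. Bundles captured on poly-D-lysine plates were imaged, and background-corrected bundle length per well was computed, with DMSO-only wells as negative controls.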

[2] = test system: MDA-MB-231 human breast tumor cells; assay: Boyden-chamber cell migration assay; assay type: cell-based; details: migration 6 h
Method: Certain tumor cells with fascin expression are listed below.
Exemplifying procedure: MDA-MB-231 cells (5×10^4) or 4T1 Cells (1×10^5) were suspended in 100 μl starvation medium and added to the upper chamber of an insert (6.5 mm diameter, 8 μm pore size; Becton Dickson). The insert was placed in a 24-well plate containing 700 μL starvation medium with or without 10% FBS. […] Migration assays were performed for 6 h and cells are fixed with 3.7% formaldehyde. Cells were stained with crystal violet staining solution, and cells on the upper side of the insert were removed with a cotton swab. Three randomly selected fields (×10 objectives) on the lower side of the insert were photographed, and the migrated cells were counted. Migration was expressed as average number of migrated cells in a field.

| Structure (SMILES) | inhibition at 50 µM [1] [%] | IC50 [2] [µM] |
| --- | --- | --- |
| Cc1nocc1C(=O)Nc1nn(Cc2ccc(Cl)cc2)c2ccccc12 [Compound 65, N-(1-(4-chlorobenzyl)-1H-indazol-3-yl)-3-methylisoxazole-4-carboxamide] | 90 | 64 |
| O=C(Nc1nn(Cc2ccc(Cl)cc2)c2ccccc12)c1ccno1 [Compound 66, N-(1-(4-chlorobenzyl)-1H-indazol-3-yl)isoxazole-5-carboxamide] | 100 | 161 |
| Cc1nocc1C(=O)Nc1nn(Cc2ccc(C(F)(F)F)cc2)c2ccccc12 [Compound 35, 3-methyl-N-(1-(4-(trifluoromethyl)benzyl)-1H-indazol-3-yl)isoxazole-4-carboxamide] | 100 | 18 |
| O=C(Nc1nn(Cc2ccc(C(F)(F)F)cc2)c2ccccc12)c1cccnn1 [Compound 49, N-(1-(4-(trifluoromethyl)benzyl)-1H-indazol-3-yl)pyridazine-3-carboxamide] | 100 | 13 |
| O=C(Nc1nn(Cc2ccc(C(F)(F)F)cc2)c2ccccc12)c1ccno1 [Compound 25, N-(1-(4-(trifluoromethyl)benzyl)-1H-indazol-3-yl)isoxazole-5-carboxamide] | 100 | 54 |
| O=C(Nc1nn(Cc2ccc(C(F)(F)F)cc2)c2ccccc12)c1cscc1Br [Compound 42, 4-bromo-N-(1-(4-(trifluoromethyl)benzyl)-1H-indazol-3-yl)thiophene-3-carboxamide] | < 10 | – |
| O=C(Nc1nn(Cc2ccc(C(F)(F)F)nc2)c2cccc(Cl)c12)c1cccnn1 [Compound 121, N-(4-chloro-1-((6-(trifluoromethyl)pyridin-3-yl)methyl)-1H-indazol-3-yl)pyridazine-3-carboxamide] | < 10 | – |
| O=C(Nc1nn(Cc2ccc(F)cc2)c2ccccc12)c1cccnn1 [Compound 76, N-(1-(4-fluorobenzyl)-1H-indazol-3-yl)pyridazine-3-carboxamide] | < 10 | – |
| Cc1ncsc1C(=O)Nc1nn(Cc2ccc(C(F)(F)F)cc2)c2cc(C(F)(F)F)ccc12 [Compound 110, 4-methyl-N-(6-(trifluoromethyl)-1-(4-(trifluoromethyl)benzyl)-1H-indazol-3-yl)thiazole-5-carboxamide] | < 10 | – |
| Cc1ccc2c(NC(=O)c3scnc3C)nn(Cc3ccc(C(F)(F)F)cc3)c2n1 [Compound 135, 4-methyl-N-(6-methyl-1-(4-(trifluoromethyl)benzyl)-1H-pyrazolo[3,4-b]pyridin-3-yl)thiazole-5-carboxamide] | < 10 | – |
| O=C(Nc1nn(Cc2ccc(C(F)(F)F)cc2)c2cncc(Cl)c12)c1ccoc1 [Compound 140, N-(4-chloro-1-(4-(trifluoromethyl)benzyl)-1H-pyrazolo[3,4-c]pyridin-3-yl)furan-3-carboxamide] | 10 | – |
| Cc1occc1C(=O)Nc1nn(Cc2ccc(C(F)(F)F)cc2)c2cccc(Cl)c12 [Compound 119, N-(4-chloro-1-(4-(trifluoromethyl)benzyl)-1H-indazol-3-yl)-2-methylfuran-3-carboxamide] | < 10 | – |
| N#Cc1ccc(Cn2nc(N)c3ccccc32)cc1 [Compound 84, 4-((3-amino-1H-indazol-1-yl)methyl)benzonitrile] | < 10 | – |
| Cc1nocc1C(=O)Nc1nn(Cc2ccc(C(F)(F)F)cc2)c2cccc(Cl)c12 [Compound 118, N-(4-chloro-1-(4-(trifluoromethyl)benzyl)-1H-indazol-3-yl)-3-methylisoxazole-4-carboxamide] | < 10 | – |
| O=C(Nc1nn(Cc2ccc(C(F)(F)F)cc2)c2ccccc12)c1ccccn1 [Compound 55, N-(1-(4-(trifluoromethyl)benzyl)-1H-indazol-3-yl)picolinamide] | < 10 | – |
| O=C(Nc1nn(Cc2ccc(C(F)(F)F)nc2)c2ccccc12)c1ccoc1 [Compound 92, N-(1-((6-(trifluoromethyl)pyridine-3-yl)methyl)-1H-indazol-3-yl)furan-3-carboxamide] | < 10 | – |
| Cc1ccsc1C(=O)Nc1nn(Cc2ccc(C(F)(F)F)cc2)c2ccccc12 [Compound 23, 3-methyl-N-(1-(4-(trifluoromethyl)benzyl)-1H-indazol-3-yl)thiophene-2-carboxamide] | < 10 | – |
| Cc1ncsc1C(=O)Nc1nn(Cc2ccc(Cl)cc2)c2ccccc12 [Compound 68, N-(1-(4-chlorobenzyl)-1H-indazol-3-yl)-4-methylthiazole-5-carboxamide] | 50 | – |
| Cc1cccc(C(=O)Nc2nn(Cc3ccc(C(F)(F)F)cc3)c3ccccc23)c1 [Compound 17, 3-methyl-N-(1-(4-(trifluoromethyl)benzyl)-1H-indazol-3-yl)benzamide] | < 10 | – |
| Cc1csc(C(=O)Nc2nn(Cc3ccc(C(F)(F)F)cc3)c3ccccc23)n1 [Compound 11, 4-methyl-N-(1-(4-(trifluoromethyl)benzyl)-1H-indazol-3-yl)thiazole-2-carboxamide] | < 10 | – |
| Nc1nn(Cc2ccc(C(F)(F)F)cc2)c2cncc(Cl)c12 [Compound 137, 4-chloro-1-(4-(trifluoromethyl)benzyl)-1H-pyrazolo[3,4-c]pyridin-3-amine] | 100 | – |
